Results published in patent US11299494B2, “Substituted imidazo[1,2-b]pyridazines as interleukin-23 and interferon-α modulators” (BRISTOL-MYERS SQUIBB COMPANY, priority 2016, dated 2022).

Key:
[1] = tested on: IL-23 Kit225 Reporter (Kit225 T cells with STAT-dependent luciferase reporter); experiment: Kit225 T cell assay, IL-23 stimulated STAT-dependent luciferase reporter; format: cell-based; conditions: 20 ng/mL human recombinant IL-23, 5-6 hours
Protocol: (§1) Kit225 T cells with a stably-integrated STAT-dependent luciferase reporter were plated in RPMI (GIBCO) containing 10% heat-inactivated FBS (GIBCO) and 100 U/mL PenStrep (GIBCO). The cells were then stimulated with either 20 ng/mL human recombinant IL-23 or 200 U/mL human recombinant IFNα (PBL InterferonSource) for 5-6 hours. Luciferase expression was measured using the STEADY-GLO® Luciferase Assay System (PROMEGA®) according to the manufacturer's instructions. Inhibition data were calculated by comparison to no inhibitor control wells for 0% inhibition and non-stimulated control wells for 100% inhibition. Dose response curves were generated to determine the concentration required to inhibit 50% of cellular response (IC50) as derived by non-linear regression analysis.

[2] = molecular target: T1, human Tyk2 (amino acids 575-869, His-tagged) (Homo sapiens, UniProt P29597); experiment: Probe displacement assay (scintillation proximity, radiolabeled probe); format: binding; conditions: 2.5 nM Tyk2 (575-869), 40 nM tritiated probe, 30 minutes at room temperature
T1 construct: made in house
Protocol: The probe displacement assay is conducted as follows: In a […], test compounds along with recombinantly expressed His-tagged protein corresponding to amino acids 575-869 of human Tyk2 (sequence shown below) at 2.5 nM, 40 nM ((R)—N-(1-(3-(8-methyl-5-(methylamino)-8H-imidazo[4,5-d]thiazolo[5,4-b]pyridin-2-yl)phenyl)ethyl)-2-([^3H]methylsulfonyl)benzamide) (preparation described below) and 80 μg/mL Copper His-Tag scintillation proximity assay beads (Perkin Elmer, Catalog #RPNQ0095) in 50 mM HEPES, pH 7.5, containing 100 μg/mL bovine serum albumin and 5% DMSO were incubated for 30 minutes at room temperature. The amount of radiolabeled probe (preparation described below) bound to Tyk2 was then quantified by scintillation counting, and the inhibition by the test compound calculated by comparison to wells either with no inhibitor (0% inhibition) or without Tyk2 (100% inhibition). The IC50 value is defined as the concentration of test compound required to inhibit radiolabeled probe binding by 50%.
Protein Sequence of recombinant Hig-tagged Tyk2 (575-869):
The preparation of radiolabeled probe, (R)—N-(1-(3-(8-methyl-5-(methylamino)-8H-imidazo[4,5-d]thiazolo[5,4-b]pyridin-2-yl)phenyl)ethyl)-2-([^3H]methylsulfonyl)benzamide, was performed as described below:
2-([^3H]methylsulfonyl)benzoic acid: 2-Mercaptobenzoic acid (2.3 mg, 0.015 mmol) and cesium carbonate (2 mg, 0.006 mmol) were added to a 5 mL round-bottomed flask. The flask was attached to a ported glass vacuum line and anhydrous DMF (0.5 mL) was introduced with magnetic stirring. An ampoule of tritiated methyl iodide (200 mCi, Perkin-Elmer lot 3643419) was added to the reaction flask and stirring was maintained at rt for 3 h. In-process HPLC analysis with radiometric detection indicated 80% conversion to the desired product by comparison with authentic standard. Without purification, the crude product was reacted with mCPBA (10 mg, 0.058 mmol) pre-dissolved in CH2Cl2 (1 mL) at room temperature with stirring. The reaction was stirred for 7 h and additional mCPBA (10 mg, 0.058 mmol) was added. The reaction was stirred for approximately 24 h and HPLC analysis indicated 35-40% conversion to the desired […] product. The crude product was purified by semi-preparative HPLC (Luna Sum C18 (10×250 cm); A: MeOH/H2O=15/85 (0.1% TFA); B: MeOH; 270 nm; 0-8 min 0% B 1 ml/min; 8-10 min 0% B 1-3 ml/min; 10-55 min 0% B 3 ml/min; 55-65 min 0-10% B 3 ml/min; 65-75 min 10-50% B 3 ml/min; 75-80 min 50-100% B 3 ml/min) to give 81 mCi (40% radiochemical yield) of 2-([^3H]methylsulfonyl)benzoic acid product identified by its HPLC co-elution with an authentic standard. The radiochemical purity was measured by HPLC to be 99% (Luna 5u C18 (4.6×150 cm); A: H2O (0.1% TFA); B: MeOH; 1.2 ml/min; 270 nm; 0-10 min 20% B; 10-15 min 20-100% B; 15-25 min 100% B. The product was dissolved in anhydrous acetonitrile to give a final solution activity of 5.8 mCi/mL. (R)—N-(1-(3-(8-methyl-5-(methylamino)-8H-imidazo[4,5-d]thiazolo[5,4-b]pyridin-2-yl)phenyl)ethyl)-2-([^3H]methylsulfonyl)benzamide: A solution of 2-([^3H]methylsulfonyl)benzoic acid (23.2 mCi) in acetonitrile was added to a 5 mL round-bottomed flask which was then attached to a vacuum line and carefully evaporated to dryness. (R)-2-(3-(1-aminoethyl)phenyl)-N,8-dimethyl-8H-imidazo[4,5-d]thiazolo[5,4-b]pyridin-5-amine (prepared as described in WO 2004/106293 and Dyckman et al., Bioorganic and Medicinal Chemistry Letters, 383-386 (2011)) (1.1 mg, 0.0033 mmol) and PyBOP (2 mg, 0.0053 mmol) dissolved in anhydrous DMF (1.5 mL) were added to the flask followed by N,N-diisopropylethylamine (0.010 mL). The resulting clear solution was stirred at room temperature for 18 h. […]

[3] = tested on: IFNa Kit225 Reporter (Kit225 T cells with STAT-dependent luciferase reporter); experiment: Kit225 T cell assay, IFNα stimulated STAT-dependent luciferase reporter; format: cell-based; conditions: 200 U/mL human recombinant IFNα, 5-6 hours
Protocol: as §1

T1 sequence (P29597 with tags, fused parts or gaps): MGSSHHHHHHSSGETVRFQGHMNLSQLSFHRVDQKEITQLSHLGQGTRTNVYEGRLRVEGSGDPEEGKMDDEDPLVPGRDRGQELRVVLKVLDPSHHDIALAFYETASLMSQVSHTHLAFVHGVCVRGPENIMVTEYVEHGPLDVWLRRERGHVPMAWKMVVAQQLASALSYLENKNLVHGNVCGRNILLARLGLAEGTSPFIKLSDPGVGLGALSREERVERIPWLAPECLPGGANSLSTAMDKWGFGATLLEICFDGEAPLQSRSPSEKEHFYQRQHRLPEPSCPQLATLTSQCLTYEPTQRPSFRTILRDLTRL

| SMILES | IC50 [1] | EC50 [2] | IC50 [3] |
| --- | --- | --- | --- |
| CNc1cc(-n2cc(C(=O)NCC(C)(C)O)c3ccccc32)nn2c(C(=O)NC3CC3)cnc12 [Example 1, N-cyclopropyl-6-(3-((2-hydroxy-2-methylpropyl)carbamoyl)-1H-indol-1-yl)-8-(methylamino)imidazo[1,2-b]pyridazine-3-carboxamide] | 2100 nM | 22 nM | 1320 nM |
| CCNC(=O)c1cn(-c2cc(NC)c3ncc(C(=O)NC4CC4)n3n2)c2ccccc12 [Example 2] | 813 nM | 5 nM | 1120 nM |
| CNc1cc(-n2cc(C(=O)N3CCC(O)CC3)c3ccccc32)nn2c(C(=O)NC3CC3)cnc12 [Example 3] | 12500 nM | 19 nM | 4790 nM |
| CNc1cc(-n2cc(C(=O)Nc3cccnc3)c3ccccc32)nn2c(C(=O)NC3CC3)cnc12 [Example 4] | 1890 nM | 22 nM | 1230 nM |
| CNc1cc(-n2cc(C(=O)Nc3ccccc3)c3ccccc32)nn2c(C(=O)NC3CC3)cnc12 [Example 5] | 1960 nM | 25 nM | 4210 nM |
| CNc1cc(-n2cc(C(=O)NCCC(N)=O)c3ccccc32)nn2c(C(=O)NC3CC3)cnc12 [Example 6] | 12500 nM | 31 nM | 9550 nM |
| CNc1cc(-n2cc(C(=O)NCC(C)C)c3ccccc32)nn2c(C(=O)NC3CC3)cnc12 [Example 7] | 1640 nM | 35 nM | 924 nM |
| CNc1cc(-n2cc(C(=O)NCCOC)c3ccccc32)nn2c(C(=O)NC3CC3)cnc12 [Example 8] | 574 nM | 37 nM | 537 nM |
| CNc1cc(-n2cc(C(=O)NC(C)C)c3ccccc32)nn2c(C(=O)NC3CC3)cnc12 [Example 9] | 3090 nM | 40 nM | 1460 nM |
| CNc1cc(-n2cc(C(=O)NCC(C)(C)O)c3ccccc32)nn2c(C(=O)NC3CCC3)cnc12 [Example 10] | 1100 nM | 6 nM | 882 nM |
| CNc1cc(-n2cc(C(=O)NC3CCOCC3)c3ccccc32)nn2c(C(=O)NC3CCC3)cnc12 [Example 11] | 1370 nM | 10 nM | 689 nM |
| CNc1cc(-n2cc(C(=O)N3CCOCC3)c3ccccc32)nn2c(C(=O)NC3CCC3)cnc12 [Example 12] | 1740 nM | 18 nM | 1290 nM |
| CNc1cc(-n2cc(C(=O)NCC(C)(C)O)c3cccnc32)nn2c(C(=O)NC3CC3)cnc12 [Example 13] | 294 nM | 25 nM | 1250 nM |
| CNc1cc(-n2cnc3ccccc32)nn2c(C(=O)NC3CC3)cnc12 [Example 14] | 3640 nM | 29 nM | 1750 nM |
| CNc1cc(-n2ccc3c(OC)cccc32)nn2c(C(=O)NC3CC3)cnc12 [Example 15] | 649 nM | 46 nM | 2320 nM |
| CNc1cc(-n2ccc3ncccc32)nn2c(C(=O)NC3CC3)cnc12 [Example 16] | 947 nM | 123 nM | 1140 nM |
| CNC(=O)c1nn(-c2cc(NC)c3ncc(C(=O)NC4CC4)n3n2)c2ccccc12 [Example 17, N-cyclopropyl-8-(methylamino)-6-(3-(methylcarbamoyl)-1H-indazol-1-yl)imidazo[1,2-b]pyridazine-3-carboxamide] | 355 nM | 16 nM | 270 nM |
| CNc1cc(-n2nc(C(=O)N3CCOCC3)c3ccccc32)nn2c(C(=O)NC3CC3)cnc12 [Example 18] | 700 nM | 40 nM | 511 nM |
| CNc1cc(-n2nc(C(=O)N(C)C)c3ccccc32)nn2c(C(=O)NC3CC3)cnc12 [Example 19] | 511 nM | 61 nM | 474 nM |
| CNc1cc(-n2nc(C(=O)NCC(C)(C)O)c3ccccc32)nn2c(C(=O)NC3CC3)cnc12 [Example 20] | 926 nM | 75 nM | 475 nM |
| CNc1cc(-n2ccc3ccccc32)nn2c(C(=O)NC3CC3)cnc12 [Example 21] | 661 nM | 13 nM | 433 nM |
| CNc1cc(-n2cc(C(=O)O)c3ccccc32)nn2c(C(=O)NC3CCC3)cnc12 [Example 22] | 12500 nM | 48 nM | 12500 nM |
